# According to US9499494B2, “Pyrimidine-2,4,6-triones for use in the treatment of amyotrophic lateral sclerosis” (Northwestern University, priority 2009, dated 2016):
# Where a SMILES comes first, the peptide text is derived from it. The star is where a group is joined. Cbz = O=C(OCc1ccccc1)*
# Tests used:
# Format in all cases: cell-based
# [1] = test system: PC12 cells expressing G85R SOD1; experiment: mutant SOD1 direct protein aggregation assay
# Excerpt: Compounds that are active in the above assay could theoretically protect against mutant SOD1-induced cytotoxicity through a number of mechanisms, including the following: 1) Compounds could nonspecifically block or reverse protein aggregation via chaperone induction, as observed for radicicol and geldanamycin 2) Compounds could block or reverse the aggregation of a specific aggregated protein form 3) Compounds could interfere with an event downstream of protein aggregation that plays a critical role in mutant SOD1-induced cytotoxicity (e.g., proteasome function). 4) Compounds could act directly on SOD1 in a manner that prevents mutant SOD1 aggregation. These possibilities were tested using an assay that directly measures protein aggregation. In addition, unlike the high throughput cytotoxicity protection assay, the protein aggregation assay is based on G85R SOD1; this broadens the scope of the screening strategy, and should eliminate compounds with highly specific activity (i.e., G93A SOD1 limited) against protein aggregation.
# In PC12 cells that express wild-type SOD1, SOD1 was diffusely localized throughout the cell (Matsumoto et al. J. Cell. Biol 2005, 171(1), 75-85). […]
# To allow this assay to be used in a high-throughput manner, a Cellomics Arrayscan® high content microscopy system was used for screening and quantification. […]
# [2] = test system: PC12 cells expressing G93A mutant SOD1; experiment: mutant SOD1 protein aggregation in G93A cells
# Method: (§1) PC12 cells expressing G93A SOD1 were treated with 100 nM MG132 with or without co-treatment with geldanamycin or radicicol. […] Statistical analysis of the data produced a Z′ value of 0.55, which would predict good performance as a positive control in a high throughput screen (Zhang et al. J. Biomol. Screen 1999, 4(2), 67-73).
# In PC12 cells that express wild-type SOD1, SOD1 was diffusely localized throughout the cell (Matsumoto et al. J. Cell. Biol 2005, 171(1), 75-85). […] Therefore, these effects are likely to be due to MG132-induced proteasome inhibition, and not due to an off-target effect of MG132.
# The identification of a positive control is a crucial step in assay development. Thus, PC12 cells expressing G85R or G93A mutant SOD1 were treated with MG132 to induce protein aggregation, and then co-treated with candidate chemical suppressors of protein aggregation. […] Both compounds induce heat shock transcription factor HSF-1, which in turn induces the heat shock response (FIG. 4). Treatment with radicicol reduced the proportion of cells with aggregates from 75% to 25%, a sufficient difference to allow visual scoring for compounds with efficacy equal to or greater than radicicol.
# [3] = test system: PC12 cells expressing no SOD1, wild type SOD1 and G85R SOD1; experiment: sensitivity of PC12 cells to proteasome inhibitor (cell viability); details: Rattus norvegicus, PC-12
# Method: (§2) The high throughput cytotoxicity protection assay was carried out in PC12 cells that express mutant G93A SOD1 as a YFP fusion protein from a doxycycline-inducible promoter (Matsumoto et al., J. Cell. Biol. 2005, 171, 75). […] This idea was tested by examining the sensitivity of PC12 cells to SOD1 aggregates in the presence and absence of proteasome inhibitor MG132. PC12 cells expressing no SOD1, wild type SOD1, G85R SOD1 or G93A SOD1 were grown with or without MG132 (FIG. 1). […] In these cells, protein aggregation was detected after 24 h and loss of cell viability was detected at approximately 48 h. […] The ability of protein aggregates to induce cell death was examined by treating G93A SOD1-expressing cells with MG132 for 24 h, removing the MG132 by washing and assaying cell viability after another 24 h. Because the loss of cell viability was similar following MG132 removal (FIG. 1, part C), it is likely that mutant SOD1 aggregates contribute directly to cytotoxicity in PC12 cells.
# [4] = test system: PC12 cells expressing G93A SOD1; experiment: as above
# Method: as §2
# [5] = test system: PC12 cells that express mutant G93A SOD1 as a YFP fusion protein; experiment: high throughput cytotoxicity protection assay; details: for EC50: Rattus norvegicus, PC-12, Table 1, fluorinated PYT compounds
# Excerpt: Cultured cells are utilized to conduct high throughput assays for compounds that protect against mutant SOD1-induced cytotoxicity. Two assays are used: first, in the cytotoxicity protection assay, compounds are screened for their ability to protect cells from the cytotoxic effects of aggregated mutant SOD1, irrespective of mechanism of drug action. Second, in the protein aggregation assay, compounds are screened for their ability to reduce aggregation of mutant SOD1. The high throughput cytotoxicity protection assay is the primary screen and compounds active in the primary screen (and their analogs) move forward into the secondary screen for protein aggregation.
# as §2, §1
# [6] = G93A SOD1 cells treated with 100 nM MG132, co-treatment
smiles,measurement,setting,value
CC(C)C[C@@H](C=O)NC(=O)[C@H](CC(C)C)NC(=O)[C@H](CC(C)C)NC(=O)OCc1ccccc1 [MG132] (Cbz-Leu-Leu-Leu-aldehyde),cells containing protein aggregates,[1]; cells expressing G85R SOD1 treated with MG132,up to 75%
same,cells with protein aggregates,[2]; cells expressing G93A mutant SOD1 following treatment with MG132,~75%
same,IC50,[3],~400 nM
same,"fold more sensitive than cells expressing no SOD1, wild type SOD1 or G85R SOD1",[4]; G93A SOD1 cells,approximately 5 fold
same,IC50,"[4]; Rattus norvegicus, PC-12, read-out: IC50 (cell viability)",~75 nM
C[C@@H]1C[C@H]2O[C@@H]2/C=C\C=C\C(=O)Cc2c(Cl)c(O)cc(O)c2C(=O)O1 [radicicol],proportion of cells with aggregates after treatment,"[1]; PC12 cells expressing G85R or G93A mutant SOD1, MG132-treated, 75% without co-treatment",25%
same,formation of protein aggregates,[2]; [6],reduced formation of protein aggregates
same,cell viability,[5]; [6],increased cell viability in a dose-dependent manner
O=C1CC(=O)N(CC(F)(F)c2ccc(F)c(F)c2)C(=O)N1CC(F)(F)c1ccc(F)c(F)c1,EC50,[5],2000 to 8000 nM
CC(C)C[C@H](NC(=O)[C@H](Cc1ccccc1)NC(=O)c1cnccn1)B(O)O [bortezomib],sensitivity of PC12 cells to proteasome inhibition compared with MG132,[4],Qualitatively similar results
O=C1CC(=O)N(CC(F)(F)c2ccc(C(F)(F)F)cc2)C(=O)N1CC(F)(F)c1ccc(C(F)(F)F)cc1,EC50,[5],2000 to 8000 nM
O=C1CC(=O)N(CC(F)(F)c2ccc(Cl)c(Cl)c2)C(=O)N1CC(F)(F)c1ccc(Cl)c(Cl)c1,EC50,[5],2000 to 8000 nM
O=C1CC(=O)N(CC(F)(F)c2ccc(Cl)cc2)C(=O)N1CC(F)(F)c1ccc(Cl)cc1,EC50,[5],2000 to 8000 nM
